Reference: ChEMBL document CHEMBL1201862, “PubChem BioAssay data set” (2004)
Active and inactive are the calls of the source.

Key:
Steroidogenic factor 1 = Steroidogenic factor 1 (Homo sapiens, UniProt Q13285); assay: Counterscreen for inverse agonists of the liver receptor homolog-1 (LRH-1; NR5A2): Luminescence-based cell-based high throughput dose response assay to identify inverse agonists of the Steroidogenic Factor 1 Nuclear Receptor (SF1; NR5A1).; format: functional
[1] = molecular target: Nuclear receptor subfamily 5 group A member 2 (Homo sapiens, UniProt O00482); format: functional, cell-based;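 also: HEK293T cells transfected with LRH-1 and a StAR promoter luciferase reporter; potency for inhibitors that lower LRH-1 driven reporter light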
Sequence of Nuclear receptor subfamily 5 group A member 2 (O00482 whole entry): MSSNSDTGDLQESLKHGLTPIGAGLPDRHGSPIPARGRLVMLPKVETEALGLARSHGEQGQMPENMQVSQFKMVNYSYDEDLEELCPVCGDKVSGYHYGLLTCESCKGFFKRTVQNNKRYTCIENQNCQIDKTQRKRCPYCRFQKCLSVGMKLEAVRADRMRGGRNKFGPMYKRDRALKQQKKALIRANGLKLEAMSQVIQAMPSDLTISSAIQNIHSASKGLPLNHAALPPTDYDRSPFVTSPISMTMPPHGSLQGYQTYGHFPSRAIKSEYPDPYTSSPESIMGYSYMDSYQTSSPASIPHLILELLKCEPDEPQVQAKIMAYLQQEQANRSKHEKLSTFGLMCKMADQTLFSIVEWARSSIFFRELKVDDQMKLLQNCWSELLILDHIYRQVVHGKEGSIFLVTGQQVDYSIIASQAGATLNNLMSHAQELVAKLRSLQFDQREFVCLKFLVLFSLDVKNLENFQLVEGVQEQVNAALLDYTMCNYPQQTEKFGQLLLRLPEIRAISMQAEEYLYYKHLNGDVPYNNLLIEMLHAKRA

[2] = nonselective StAR promoter luciferase inhibitors – cell-based, luminescence, luciferase reporter, counter-screen for LRH-1 inverse agonist project, dose response (AID 651969); format: functional
INS1 = assay: INS-1E survival protection against cytokine death – cell-based, luminescence, retest, dose response (AID 449756); format: functional; settings: Rattus norvegicus;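 also: cell death triggered by IL-1 beta plus TNF-alpha plus IFN-gamma mixture; protective hits raise ATP signal compared with cytokine alone wells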
[3] = non-specific 3'UTR reporter inhibition in Clone20-Shn3RL – cell-based, Renilla luciferase, cherry-picked, counter-screen for Shn3 inhibitor project, dose response (AID 624133); format: functional
Protein Wnt-3a = Protein Wnt-3a (Mus musculus, UniProt P27467); assay: antagonism of Wnt3a pathway luciferase reporter – Wnt-LIGHT cells, luminescence, selectivity assay for Gli-SUFU antagonist project, dose response (AID 651570); format: functional; settings: read-out: IC50_Mean;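 also: Wnt-LIGHT reporter cells stimulated with conditioned medium from Wnt3a-producing cells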
Sequence of Protein Wnt-3a (P27467 whole entry): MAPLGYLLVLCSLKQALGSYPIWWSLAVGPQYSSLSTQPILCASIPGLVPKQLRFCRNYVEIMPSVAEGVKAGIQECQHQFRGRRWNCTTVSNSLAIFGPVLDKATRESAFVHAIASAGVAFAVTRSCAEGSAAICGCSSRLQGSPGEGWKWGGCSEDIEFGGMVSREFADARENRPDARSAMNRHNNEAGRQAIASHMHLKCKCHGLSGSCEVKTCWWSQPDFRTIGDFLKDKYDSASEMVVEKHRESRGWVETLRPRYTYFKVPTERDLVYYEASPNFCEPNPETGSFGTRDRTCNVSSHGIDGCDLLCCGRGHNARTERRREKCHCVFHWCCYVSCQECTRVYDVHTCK

[4] = reduction of Shn3 3'UTR-driven luciferase in osteoblasts – cell-based, Clone20 osteoblasts, firefly luciferase, cherry-picked, dose response (AID 624132); format: functional;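 also: firefly luciferase luminescence from reporter carrying the Shn3 3'UTR in osteoblasts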
[5] = decrease of insulin promoter-GFP reporter – imaging, high-content screening, mouse beta cells (AID 1628); format: functional; settings: MIN6
[6] = loss of viability in HepG2 cells – cell-based, CellTiter-Glo, cherry-picked, cytotoxicity control for Shn3 inhibitor project, dose response (AID 624134); format: functional
[7] = MIN6 cell viability loss – mouse insulinoma, cytotoxicity control, dose response (AID 2122); format: functional;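 also: confirmatory high-throughput counterscreen run to flag cytotoxic compounds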
[8] = Luminescence Cell-Based Dose Retest to Confirm Inhibitors of Cancer Stem Cells. [Related pubchem assays (depositor defined):AID2717, AID2721]; format: functional; settings: Homo sapiens
Vero [9] = assay: cells; format: functional, cell-based; settings: Chlorocebus sabaeus
HEK293 [10] = assay: cells; settings: Homo sapiens
A-375 = assay: MITF: Counter assay: A375 proliferation Measured in Cell-Based System Using Plate Reader - 2084-03_Inhibitor_Dose_DryPowder_Activity. [Related pubchem assays (depositor defined):AID488944]; format: functional; settings: Homo sapiens
Vero [11] = assay: cells; format: functional; settings: Chlorocebus sabaeus
[12] = molecular target: T1, Microphthalmia-associated transcription factor (Homo sapiens, UniProt O75030); assay: reducers of TRPM1 reporter luminescence, concentration series – cell-based, SK-MEL-5, cherry-picked, set 3, MITF inhibitor project, dose response (AID 493073); format: functional;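 also: SK-MEL-5 melanoma cells with luciferase driven by the MITF target TRPM1 promoter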
T1 sequence (O75030 whole entry): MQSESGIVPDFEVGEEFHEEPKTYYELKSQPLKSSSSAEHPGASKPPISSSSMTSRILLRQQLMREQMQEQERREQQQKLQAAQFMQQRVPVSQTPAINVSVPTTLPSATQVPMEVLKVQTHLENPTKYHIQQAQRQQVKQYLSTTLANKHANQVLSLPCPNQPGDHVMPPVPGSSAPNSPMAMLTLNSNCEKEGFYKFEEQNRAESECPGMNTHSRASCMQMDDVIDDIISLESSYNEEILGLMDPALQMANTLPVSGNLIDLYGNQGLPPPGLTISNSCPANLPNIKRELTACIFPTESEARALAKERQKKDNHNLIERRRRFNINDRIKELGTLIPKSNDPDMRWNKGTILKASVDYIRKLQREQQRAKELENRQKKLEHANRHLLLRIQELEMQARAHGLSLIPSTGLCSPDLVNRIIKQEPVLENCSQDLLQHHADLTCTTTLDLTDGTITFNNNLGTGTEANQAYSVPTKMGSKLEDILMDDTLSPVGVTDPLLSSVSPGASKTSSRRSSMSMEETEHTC

HEK293 [13] = assay: cells; settings: Homo sapiens; remark: listed apart in the source
[14] = molecular target: Eukaryotic translation initiation factor 4E (Mus musculus, UniProt P63073); assay: blockers of eIF4G binding by eIF4E – biochemical, TR-FRET, dose response (AID 855); format: functional;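 also: potency for disrupting eIF4E binding to eIF4GI seen as loss of FRET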
Sequence of Eukaryotic translation initiation factor 4E (P63073 whole entry): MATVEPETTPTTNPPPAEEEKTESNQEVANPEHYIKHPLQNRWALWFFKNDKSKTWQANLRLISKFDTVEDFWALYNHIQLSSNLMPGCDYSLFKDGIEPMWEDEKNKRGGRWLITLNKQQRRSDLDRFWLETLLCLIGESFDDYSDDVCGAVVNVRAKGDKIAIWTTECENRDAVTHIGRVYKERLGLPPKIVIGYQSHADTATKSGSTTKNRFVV

Vero [15] = assay: viability of Vero cells under compound – cytotoxicity control for flavivirus capping enzyme inhibitors (AID 588742); format: functional; settings: Chlorocebus sabaeus
[16] = molecular target: Induced myeloid leukemia cell differentiation protein Mcl-1 (Homo sapiens, UniProt Q07820); format: functional
Sequence of Induced myeloid leukemia cell differentiation protein Mcl-1 (Q07820 whole entry): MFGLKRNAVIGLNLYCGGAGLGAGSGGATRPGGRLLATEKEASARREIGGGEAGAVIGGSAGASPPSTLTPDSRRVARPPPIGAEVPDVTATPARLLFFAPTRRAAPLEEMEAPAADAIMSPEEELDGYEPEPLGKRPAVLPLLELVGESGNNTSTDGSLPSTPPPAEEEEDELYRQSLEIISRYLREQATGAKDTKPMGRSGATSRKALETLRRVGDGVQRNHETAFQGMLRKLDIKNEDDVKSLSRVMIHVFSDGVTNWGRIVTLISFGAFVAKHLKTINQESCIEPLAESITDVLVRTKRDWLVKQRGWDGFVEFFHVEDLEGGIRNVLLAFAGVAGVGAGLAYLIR

[17] = molecular target: Glucose-6-phosphate 1-dehydrogenase (Homo sapiens, UniProt P11413); assay: inhibition of Homo sapiens G6PD, dose series – biochemical, fluorescence, selectivity assay for P. falciparum G6PD inhibitor project, dose response (AID 504792); format: functional
Sequence of Glucose-6-phosphate 1-dehydrogenase (P11413 whole entry): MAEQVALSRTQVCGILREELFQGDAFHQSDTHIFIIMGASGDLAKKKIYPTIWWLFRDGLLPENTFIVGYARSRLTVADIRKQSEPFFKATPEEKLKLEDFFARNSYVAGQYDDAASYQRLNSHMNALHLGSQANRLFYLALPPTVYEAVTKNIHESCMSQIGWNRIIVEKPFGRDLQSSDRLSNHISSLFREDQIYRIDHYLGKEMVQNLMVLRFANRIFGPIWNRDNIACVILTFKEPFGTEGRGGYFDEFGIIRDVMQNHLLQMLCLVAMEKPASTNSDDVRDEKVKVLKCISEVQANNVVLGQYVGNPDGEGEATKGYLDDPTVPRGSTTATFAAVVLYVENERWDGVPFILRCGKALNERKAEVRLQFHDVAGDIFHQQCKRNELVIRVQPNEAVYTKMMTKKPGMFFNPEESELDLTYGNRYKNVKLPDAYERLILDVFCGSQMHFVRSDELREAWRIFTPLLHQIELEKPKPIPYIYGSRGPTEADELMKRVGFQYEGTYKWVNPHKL

[18] = molecular target: T2, Mannose-6-phosphate isomerase (Homo sapiens, UniProt P34949); assay: MPI inhibition at elevated mannose 6-phosphate – biochemical, fluorescence intensity, high mannose 6-phosphate, primary screen (AID 1220)
T2 sequence (P34949 whole entry): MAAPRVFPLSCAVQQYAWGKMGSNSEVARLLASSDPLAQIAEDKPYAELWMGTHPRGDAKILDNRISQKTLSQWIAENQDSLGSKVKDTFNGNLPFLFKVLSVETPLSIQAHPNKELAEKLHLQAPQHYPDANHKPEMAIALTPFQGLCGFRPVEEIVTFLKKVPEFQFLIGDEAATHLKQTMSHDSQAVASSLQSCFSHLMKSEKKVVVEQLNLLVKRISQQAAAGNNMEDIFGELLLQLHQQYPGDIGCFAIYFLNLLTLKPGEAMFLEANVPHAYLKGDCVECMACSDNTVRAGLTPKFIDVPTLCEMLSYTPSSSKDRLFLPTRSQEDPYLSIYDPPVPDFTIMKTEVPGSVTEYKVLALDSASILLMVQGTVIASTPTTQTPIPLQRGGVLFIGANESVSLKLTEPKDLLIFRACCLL

Genome polyprotein = Genome polyprotein (dengue virus type 2, UniProt P29990); assay: flavivirus cap methylation enzyme inhibition – biochemical, confirmation dose response, primary screen (AID 588689); format: functional
Sequence of Genome polyprotein (P29990 2492-3391 limits assumed): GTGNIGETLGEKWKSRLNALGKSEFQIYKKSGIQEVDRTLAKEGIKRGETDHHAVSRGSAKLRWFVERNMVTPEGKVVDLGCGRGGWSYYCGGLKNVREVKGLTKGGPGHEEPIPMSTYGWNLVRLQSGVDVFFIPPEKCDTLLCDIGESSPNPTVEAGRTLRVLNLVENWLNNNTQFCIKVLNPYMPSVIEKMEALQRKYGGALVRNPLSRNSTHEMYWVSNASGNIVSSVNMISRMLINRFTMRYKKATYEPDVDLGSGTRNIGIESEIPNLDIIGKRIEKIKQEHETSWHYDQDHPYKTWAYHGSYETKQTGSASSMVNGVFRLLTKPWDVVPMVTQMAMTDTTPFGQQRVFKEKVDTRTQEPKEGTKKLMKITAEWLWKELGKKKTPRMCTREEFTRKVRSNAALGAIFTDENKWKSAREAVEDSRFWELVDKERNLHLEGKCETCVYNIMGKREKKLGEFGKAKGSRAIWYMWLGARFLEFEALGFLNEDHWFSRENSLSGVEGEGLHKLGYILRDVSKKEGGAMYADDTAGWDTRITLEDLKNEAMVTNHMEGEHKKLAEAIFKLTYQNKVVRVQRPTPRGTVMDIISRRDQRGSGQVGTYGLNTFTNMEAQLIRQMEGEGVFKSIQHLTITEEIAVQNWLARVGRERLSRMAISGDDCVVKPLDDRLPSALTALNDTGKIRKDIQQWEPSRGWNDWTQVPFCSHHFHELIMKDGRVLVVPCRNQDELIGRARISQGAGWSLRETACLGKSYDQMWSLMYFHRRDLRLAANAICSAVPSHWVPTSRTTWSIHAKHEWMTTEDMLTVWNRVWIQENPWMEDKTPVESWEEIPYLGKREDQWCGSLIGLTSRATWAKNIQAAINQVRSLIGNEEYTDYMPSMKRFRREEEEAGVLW

Nonstructural protein 1 = Nonstructural protein 1 (Influenza A virus, UniProt Q194T2); format: functional, Influenza A virus (A/California/07/2009(H1N1))
Sequence of Nonstructural protein 1 (Q194T2 whole entry): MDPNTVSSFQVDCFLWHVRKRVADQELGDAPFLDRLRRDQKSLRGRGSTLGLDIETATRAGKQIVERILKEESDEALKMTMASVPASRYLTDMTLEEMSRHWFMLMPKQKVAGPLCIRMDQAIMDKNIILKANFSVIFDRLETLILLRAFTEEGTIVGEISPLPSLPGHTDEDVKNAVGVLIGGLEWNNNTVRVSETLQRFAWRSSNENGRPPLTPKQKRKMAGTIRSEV

[19] = molecular target: T3, Apoptotic protease-activating factor 1 (Homo sapiens, UniProt O14727); format: functional
T3 sequence (O14727 whole entry): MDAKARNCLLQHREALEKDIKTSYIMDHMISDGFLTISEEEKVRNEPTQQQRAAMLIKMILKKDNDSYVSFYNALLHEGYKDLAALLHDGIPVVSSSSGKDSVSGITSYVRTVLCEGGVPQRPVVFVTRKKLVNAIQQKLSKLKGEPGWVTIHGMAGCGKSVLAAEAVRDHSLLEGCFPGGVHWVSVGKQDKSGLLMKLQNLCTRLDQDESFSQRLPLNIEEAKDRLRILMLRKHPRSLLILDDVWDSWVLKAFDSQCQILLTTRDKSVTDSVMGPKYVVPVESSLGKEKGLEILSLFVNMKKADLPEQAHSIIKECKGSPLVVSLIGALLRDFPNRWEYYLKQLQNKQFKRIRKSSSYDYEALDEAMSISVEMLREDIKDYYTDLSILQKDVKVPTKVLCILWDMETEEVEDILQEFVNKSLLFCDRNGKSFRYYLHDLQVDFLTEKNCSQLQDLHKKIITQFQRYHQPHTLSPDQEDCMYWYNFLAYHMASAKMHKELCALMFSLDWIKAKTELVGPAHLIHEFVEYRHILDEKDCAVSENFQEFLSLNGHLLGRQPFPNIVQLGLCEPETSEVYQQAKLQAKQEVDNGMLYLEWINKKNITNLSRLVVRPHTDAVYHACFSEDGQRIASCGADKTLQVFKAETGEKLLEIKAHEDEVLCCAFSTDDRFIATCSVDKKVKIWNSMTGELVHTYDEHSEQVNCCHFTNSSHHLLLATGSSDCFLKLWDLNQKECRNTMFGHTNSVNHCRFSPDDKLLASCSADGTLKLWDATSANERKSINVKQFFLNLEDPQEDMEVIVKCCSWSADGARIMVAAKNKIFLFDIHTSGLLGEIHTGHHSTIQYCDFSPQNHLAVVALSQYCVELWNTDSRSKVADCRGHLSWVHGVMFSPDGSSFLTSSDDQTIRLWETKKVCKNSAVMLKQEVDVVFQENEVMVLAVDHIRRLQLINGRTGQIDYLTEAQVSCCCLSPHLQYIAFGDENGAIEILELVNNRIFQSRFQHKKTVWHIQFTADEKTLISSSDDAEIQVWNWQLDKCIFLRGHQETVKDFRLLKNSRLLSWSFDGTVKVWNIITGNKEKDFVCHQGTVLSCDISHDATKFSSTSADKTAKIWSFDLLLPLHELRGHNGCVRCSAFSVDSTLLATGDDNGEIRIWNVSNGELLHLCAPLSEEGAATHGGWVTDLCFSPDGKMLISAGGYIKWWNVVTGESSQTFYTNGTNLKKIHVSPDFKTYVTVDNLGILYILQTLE

Sequence of Steroidogenic factor 1 (Q13285 whole entry): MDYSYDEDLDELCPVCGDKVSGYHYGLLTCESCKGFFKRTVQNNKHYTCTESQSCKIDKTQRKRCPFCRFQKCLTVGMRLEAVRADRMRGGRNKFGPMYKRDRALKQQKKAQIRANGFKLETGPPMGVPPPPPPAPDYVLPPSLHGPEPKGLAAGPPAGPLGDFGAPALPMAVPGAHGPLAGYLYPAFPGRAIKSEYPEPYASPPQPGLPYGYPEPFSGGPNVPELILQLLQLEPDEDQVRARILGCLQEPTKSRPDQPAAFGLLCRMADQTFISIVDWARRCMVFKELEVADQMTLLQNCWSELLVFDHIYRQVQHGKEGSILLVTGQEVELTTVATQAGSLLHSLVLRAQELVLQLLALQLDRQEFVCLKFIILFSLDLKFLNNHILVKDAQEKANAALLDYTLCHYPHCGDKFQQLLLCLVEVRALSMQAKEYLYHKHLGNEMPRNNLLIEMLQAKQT

With `COc1cccc(NC(=O)c2oc3ccccc3c2NC(=O)C2CC2)c1` the IC50 (Steroidogenic factor 1) was 16 µM (inactive), the IC50 [1] was 35.9 µM (inactive) and the IC50 [2] was 35.9 µM (inactive).

For `CCn1c(C)nc2cc(-c3nnc(-c4c(-c5ccccc5)noc4C)o3)ccc21`, the AC50 (INS1) was 5.72 µM (active), the AC50 [3] was 5.96 µM (active) and the IC50 (Protein Wnt-3a) was 2.59 µM (active). For the same molecule, the AC50 [4] was 5.82 µM (active).

In the case of `O=C(c1cc2sccc2n1Cc1ccccc1)N1CCN(c2nc3ccccc3s2)CC1`, the AC50 (INS1) is reported as 3.56 µM (active), the AC50 [3] is reported as 0.453 µM (active) and the IC50 [5] is reported as 0.735 µM (active). For the same molecule, the AC50 [6] was 2.92 µM (active), the IC50 (Protein Wnt-3a) was 2.68 µM (active) and the AC50 [4] was 1.09 µM (active). For the same molecule, the IC50 [7] was 0.779 µM (active).

With `N#C/C(=C\C=C\c1ccccc1[N+](=O)[O-])C(=O)NC1CCCCC1` the AC50 [8] was 5.33 µM (active), the IC50 (Vero [9]) was 17 µM (active) and the EC50 (HEK293 [10]) was > 59.7 µM (inactive). The AC50 (A-375) was 25.9 µM (active), the CC50 (Vero [11]) was > 25 µM (active) and the AC50 [12] was 7.8 µM (active). The EC50 (HEK293 [13]) was > 59.7 µM (inactive).

With `CCOc1cc(CNc2ccc(N3CCCC3)cc2)cc(Cl)c1OC` the IC50 [14] was > 64 µM (inactive), the CC50 (Vero [15]) was > 40 µM (active) and the IC50 [16] was 2.43 µM (not active). For the same molecule, the IC50 [17] was > 80 µM (inactive), the IC50 [18] was 8.91 µM (active) and the IC50 (Genome polyprotein) was 48.2 µM (active). For the same molecule, the IC50 (Nonstructural protein 1) was 20.7 µM (active) and the IC50 [19] was > 100 µM (inactive).
